{"source": "paper PMC5218480", "about": "(PLoS ONE, 2017)", "test_system": "MV-4-11 cells", "test": "Gene expression microarray analysis (Affymetrix PrimeView) and GSEA", "format": "cell-based, human", "set-up": "RFU PODN (11730768_x_at) / Fold change /veh PODN (11730768_x_at) / RFU LINC00158 (11744669_a_at) / Fold change /veh LINC00158 (11744669_a_at) / RFU DUSP10 (11751237_a_at) / Fold change /veh DUSP10 (11751237_a_at) / RFU ID3 (11757404_x_at) / Fold change /veh ID3 (11757404_x_at) / RFU PLEKHG5 (11737974_s_at) / Fold change /veh PLEKHG5 (11737974_s_at) / RFU LRRC4B (11730491_at) / Fold change /veh LRRC4B (11730491_at) / RFU GIMAP4 (11747438_a_at) / Fold change /veh GIMAP4 (11747438_a_at) / RFU KRT8 (11758183_x_at) / Fold change /veh KRT8 (11758183_x_at) / RFU CNN1 (11734310_a_at) / Fold change /veh CNN1 (11734310_a_at) / RFU VPS37D (11726825_at) / Fold change /veh VPS37D (11726825_at) / RFU C10orf10 (11716522_x_at) / Fold change /veh C10orf10 (11716522_x_at) / RFU KIR2DL2 /// KIR2DL4 /// KIR2DL5A /// KIR2DL5B /// KIR2DS1 /// KIR2DS2 /// KIR2DS3 /// KIR2DS4 /// KIR3DL3 /// KIR3DL3 /// KIR3DS1 (11738374_at) / Fold change /veh KIR2DL2 /// KIR2DL4 /// KIR2DL5A /// KIR2DL5B /// KIR2DS1 /// KIR2DS2 /// KIR2DS3 /// KIR2DS4 /// KIR3DL3 /// KIR3DL3 /// KIR3DS1 (11738374_at) / RFU C1QL1 (11718748_at) / Fold change /veh C1QL1 (11718748_at) / RFU TMPRSS4 (11747572_a_at) / Fold change /veh TMPRSS4 (11747572_a_at) / RFU HAMP (11756126_x_at) / Fold change /veh HAMP (11756126_x_at) / RFU RNFT2 (11725882_a_at) / Fold change /veh RNFT2 (11725882_a_at) / RFU NR4A2 (11747474_a_at) / Fold change /veh NR4A2 (11747474_a_at) / RFU ABCC12 (11746883_a_at) / Fold change /veh ABCC12 (11746883_a_at) / RFU TMEM136 (11760407_x_at) / Fold change /veh TMEM136 (11760407_x_at) / RFU CLDN22 /// WWC2 (11732394_at) / Fold change /veh CLDN22 /// WWC2 (11732394_at) / RFU HLA-DPB1 (11760878_x_at) / Fold change /veh HLA-DPB1 (11760878_x_at) / RFU SPINT1 (11716480_a_at) / Fold change /veh SPINT1 (11716480_a_at) / RFU GAP43 (11754022_s_at) / Fold change /veh GAP43 (11754022_s_at) / RFU A4GNT (11735810_at) / Fold change /veh A4GNT (11735810_at) / RFU PRB3 (11715151_x_at) / Fold change /veh PRB3 (11715151_x_at) / RFU TUBB4B (11761932_at) / Fold change /veh TUBB4B (11761932_at) / RFU CAPN14 (11732068_a_at) / Fold change /veh CAPN14 (11732068_a_at) / RFU TMCC2 (11721928_a_at) / Fold change /veh TMCC2 (11721928_a_at) / RFU IRGQ (11745062_a_at) / Fold change /veh IRGQ (11745062_a_at) / RFU FAM174B (11720279_a_at) / Fold change /veh FAM174B (11720279_a_at) / RFU TMPRSS4 (11748680_a_at) / Fold change /veh TMPRSS4 (11748680_a_at) / RFU FAM212B (11763350_a_at) / Fold change /veh FAM212B (11763350_a_at) / RFU PLEKHG5 (11743358_a_at) / Fold change /veh PLEKHG5 (11743358_a_at) / RFU ZSCAN30 (11745921_a_at) / Fold change /veh ZSCAN30 (11745921_a_at) / RFU CMKLR1 (11741424_a_at) / Fold change /veh CMKLR1 (11741424_a_at) / RFU LOC101060620 /// MAPK8IP1 (11723275_at) / Fold change /veh LOC101060620 /// MAPK8IP1 (11723275_at) / RFU SPTSSB (11747773_x_at) / Fold change /veh SPTSSB (11747773_x_at) / RFU PRSS12 (11739890_at) / Fold change /veh PRSS12 (11739890_at) / RFU BIN1 (11741810_x_at) / Fold change /veh BIN1 (11741810_x_at) / RFU WNT11 (11732464_a_at) / Fold change /veh WNT11 (11732464_a_at) / RFU C10orf10 (11716521_a_at) / Fold change /veh C10orf10 (11716521_a_at) / RFU C5orf56 (11738089_at) / Fold change /veh C5orf56 (11738089_at) / RFU CYB561 (11721691_x_at) / Fold change /veh CYB561 (11721691_x_at) / RFU ANKRD19P (11752326_a_at) / Fold change /veh ANKRD19P (11752326_a_at) / RFU OR2T12 /// OR2T33 /// OR2T8 (11738714_s_at) / Fold change /veh OR2T12 /// OR2T33 /// OR2T8 (11738714_s_at) / RFU VCAN (11748164_a_at) / Fold change /veh VCAN (11748164_a_at) / RFU JSRP1 (11732532_at) / Fold change /veh JSRP1 (11732532_at) / RFU KRTAP10-11 (11738290_x_at) / Fold change /veh KRTAP10-11 (11738290_x_at) / RFU MYO3A (11730013_a_at) / Fold change /veh MYO3A (11730013_a_at) / RFU EBF3 (11725865_a_at) / Fold change /veh EBF3 (11725865_a_at) / RFU CAMK2N1 (11719241_x_at) / Fold change /veh CAMK2N1 (11719241_x_at) / RFU C5orf56 (11738088_a_at) / Fold change /veh C5orf56 (11738088_a_at) / RFU OLFML3 (11715873_a_at) / Fold change /veh OLFML3 (11715873_a_at) / RFU LOC100653217 /// NTM (11731650_a_at) / Fold change /veh LOC100653217 /// NTM (11731650_a_at) / RFU MAPK11 (11762145_a_at) / Fold change /veh MAPK11 (11762145_a_at) / RFU FIZ1 (11724087_x_at) / Fold change /veh FIZ1 (11724087_x_at) / RFU OASL (11726364_x_at) / Fold change /veh OASL (11726364_x_at) / RFU SOX15 (11748057_x_at) / Fold change /veh SOX15 (11748057_x_at) / RFU CD79A (11719716_a_at) / Fold change /veh CD79A (11719716_a_at) / RFU HIST1H1D (11736915_at) / Fold change /veh HIST1H1D (11736915_at) / RFU CASKIN2 (11723855_a_at) / Fold change /veh CASKIN2 (11723855_a_at) / RFU LOC730098 (11760151_x_at) / Fold change /veh LOC730098 (11760151_x_at) / RFU OR4N2 (11742367_at) / Fold change /veh OR4N2 (11742367_at) / RFU PRRT2 (11749266_a_at) / Fold change /veh PRRT2 (11749266_a_at) / RFU SNX32 (11753110_a_at) / Fold change /veh SNX32 (11753110_a_at) / RFU CDHR5 (11726645_a_at) / Fold change /veh CDHR5 (11726645_a_at) / RFU RCAN1 (11760418_a_at) / Fold change /veh RCAN1 (11760418_a_at) / RFU FAM167A (11723789_a_at) / Fold change /veh FAM167A (11723789_a_at) / RFU FAM26E (11764081_at) / Fold change /veh FAM26E (11764081_at) / RFU ISYNA1 (11749810_s_at) / Fold change /veh ISYNA1 (11749810_s_at) / RFU ACY1 (11761880_at) / Fold change /veh ACY1 (11761880_at) / RFU 11764098_at / Fold change /veh 11764098_at / RFU SAMD14 (11745864_x_at) / Fold change /veh SAMD14 (11745864_x_at) / RFU NPB (11741838_a_at) / Fold change /veh NPB (11741838_a_at) / RFU TMPRSS6 (11731388_a_at) / Fold change /veh TMPRSS6 (11731388_a_at) / RFU KRTAP10-2 (11738614_at) / Fold change /veh KRTAP10-2 (11738614_at) / RFU ARHGAP8 /// PRR5-ARHGAP8 (11727945_x_at) / Fold change /veh ARHGAP8 /// PRR5-ARHGAP8 (11727945_x_at) / RFU KRTAP5-7 /// NADSYN1 (11734609_at) / Fold change /veh KRTAP5-7 /// NADSYN1 (11734609_at) / RFU RASL12 (11751679_a_at) / Fold change /veh RASL12 (11751679_a_at) / RFU CDKN2B (11736163_a_at) / Fold change /veh CDKN2B (11736163_a_at) / RFU PRF1 (11729649_at) / Fold change /veh PRF1 (11729649_at) / RFU, ZNF638 /// ZNF638-IT1 / Fold change vs veh, ZNF638 /// ZNF638-IT1 / RFU, PANK3 / Fold change vs veh, PANK3 / RFU, SH3YL1 / Fold change vs veh, SH3YL1 / RFU, ZEB2 / Fold change vs veh, ZEB2 / RFU, NRIP1 / Fold change vs veh, NRIP1 / RFU, PTTG1IP / Fold change vs veh, PTTG1IP / RFU, CAPN2 / Fold change vs veh, CAPN2 / RFU, MED14 / Fold change vs veh, MED14 / RFU, SNORA58 / Fold change vs veh, SNORA58 / RFU, C1orf63 / Fold change vs veh, C1orf63 / RFU, LRRFIP1 / Fold change vs veh, LRRFIP1 / RFU, NDUFAF7 / Fold change vs veh, NDUFAF7 / RFU, SLC12A2 / Fold change vs veh, SLC12A2 / RFU, IBTK / Fold change vs veh, IBTK / RFU, ESF1 / Fold change vs veh, ESF1 / Fold change vs veh, TMEM50B / RFU, TAOK1 / Fold change vs veh, TAOK1 / RFU, ACBD3 / Fold change vs veh, ACBD3 / RFU, TMA16 / Fold change vs veh, TMA16 / RFU, RWDD3 / Fold change vs veh, RWDD3 / RFU, BCAT1 / Fold change vs veh, BCAT1 / RFU, EDEM3 / Fold change vs veh, EDEM3 / RFU, TMEM33 / Fold change vs veh, TMEM33 / RFU, WDR75 / Fold change vs veh, WDR75 / RFU, AHCTF1 / Fold change vs veh, AHCTF1 / RFU, TFRC / Fold change vs veh, TFRC / RFU, ZDHHC17 / Fold change vs veh, ZDHHC17 / RFU, NOM1 / Fold change vs veh, NOM1 / RFU, ARL8B / Fold change vs veh, ARL8B / RFU, ZBTB11 / Fold change vs veh, ZBTB11 / RFU, TAMM41 / Fold change vs veh, TAMM41 / RFU, KIAA1704 /// LOC100996395 / Fold change vs veh, KIAA1704 /// LOC100996395 / RFU, ING1 / Fold change vs veh, ING1 / RFU, TRMT61B / Fold change vs veh, TRMT61B / RFU, FUBP3 / Fold change vs veh, FUBP3 / RFU, TP53 / Fold change vs veh, TP53 / RFU, TNKS2 / Fold change vs veh, TNKS2 / RFU, ZFP14 / Fold change vs veh, ZFP14 / RFU, ACTR2 / Fold change vs veh, ACTR2 / RFU, PPP3R1 / Fold change vs veh, PPP3R1 / RFU, PIK3R1 / Fold change vs veh, PIK3R1 / RFU, HNRNPA1 / Fold change vs veh, HNRNPA1 / RFU, RNF170 / Fold change vs veh, RNF170 / RFU, ZNF28 / Fold change vs veh, ZNF28 / RFU, RNGTT / Fold change vs veh, RNGTT / RFU, OGT / Fold change vs veh, OGT / RFU, BRD1 / Fold change vs veh, BRD1 / RFU, MARS / Fold change vs veh, MARS / RFU, ZNF655 / Fold change vs veh, ZNF655 / RFU, FAHD1 / Fold change vs veh, FAHD1 / RFU, BDP1 / Fold change vs veh, BDP1 / RFU, LRRCC1 / Fold change vs veh, LRRCC1 / RFU, ARID1A / Fold change vs veh, ARID1A / RFU, ZNF146 / Fold change vs veh, ZNF146 / RFU, ZNF330 / Fold change vs veh, ZNF330 / RFU, GPN3 / Fold change vs veh, GPN3 / RFU, C9orf123 / Fold change vs veh, C9orf123 / RFU, N4BP2L2 / Fold change vs veh, N4BP2L2 / RFU, ARFIP1 / Fold change vs veh, ARFIP1 / RFU, FAM179B / Fold change vs veh, FAM179B / RFU, BCL10 / Fold change vs veh, BCL10 / RFU, UHRF1BP1L / Fold change vs veh, UHRF1BP1L / RFU, BET1 / Fold change vs veh, BET1 / RFU, CNOT2 / Fold change vs veh, CNOT2 / RFU, ZNF268 / Fold change vs veh, ZNF268 / Fold change vs veh, ZNF507 / RFU, DGCR2 / Fold change vs veh, DGCR2 / RFU, WDSUB1 / Fold change vs veh, WDSUB1 / Fold change vs veh, HSP90B1 /// MIR3652 / RFU, ADSS / Fold change vs veh, ADSS / RFU, GK / Fold change vs veh, GK / RFU, ZNF148 / Fold change vs veh, ZNF148 / RFU, TAF9 / Fold change vs veh, TAF9 / RFU, SLC1A5 / Fold change vs veh, SLC1A5 / RFU, SLMO2 / Fold change vs veh, SLMO2 / RFU, ABCC4 / Fold change vs veh, ABCC4 / RFU, LOC101060439 /// RAP1B / Fold change vs veh, LOC101060439 /// RAP1B / RFU, RFX7 / Fold change vs veh, RFX7 / RFU, GTPBP10 / Fold change vs veh, GTPBP10 / RFU, CNEP1R1 / Fold change vs veh, CNEP1R1 / RFU, BIVM-ERCC5 /// ERCC5 / Fold change vs veh, BIVM-ERCC5 /// ERCC5 / RFU, ILF3 / Fold change vs veh, ILF3 / RFU 11762660_at / Fold change /veh 11762660_at / RFU VCAN (11757783_s_at) / Fold change /veh VCAN (11757783_s_at) / RFU DDX43 (11728927_at) / Fold change /veh DDX43 (11728927_at) / RFU KRT8 (11758188_x_at) / Fold change /veh KRT8 (11758188_x_at) / RFU NKD1 (11759106_at) / Fold change /veh NKD1 (11759106_at) / RFU SRD5A1 (11742802_a_at) / Fold change /veh SRD5A1 (11742802_a_at) / RFU TPSAB1 /// TPSB2 (11721975_s_at) / Fold change /veh TPSAB1 /// TPSB2 (11721975_s_at) / RFU GSTM3 (11746129_a_at) / Fold change /veh GSTM3 (11746129_a_at) / RFU IL23R (11737362_x_at) / Fold change /veh IL23R (11737362_x_at) / RFU TMEM51 (11727254_a_at) / Fold change /veh TMEM51 (11727254_a_at) / RFU PIWIL2 (11732686_x_at) / Fold change /veh PIWIL2 (11732686_x_at) / RFU ORM1 (11744905_x_at) / Fold change /veh ORM1 (11744905_x_at) / RFU CCDC152 (11743942_at) / Fold change /veh CCDC152 (11743942_at) / RFU ECM1 (11717891_a_at) / Fold change /veh ECM1 (11717891_a_at) / RFU IL23R (11748794_a_at) / Fold change /veh IL23R (11748794_a_at) / RFU TNFAIP8L3 (11732012_x_at) / Fold change /veh TNFAIP8L3 (11732012_x_at) / RFU MBOAT4 (11741988_at) / Fold change /veh MBOAT4 (11741988_at) / RFU 11764193_at / Fold change /veh 11764193_at / RFU TMEM53 (11763286_at) / Fold change /veh TMEM53 (11763286_at) / RFU MAGEB2 (11727129_at) / Fold change /veh MAGEB2 (11727129_at) / RFU TMEM200A (11744735_a_at) / Fold change /veh TMEM200A (11744735_a_at) / RFU CCDC152 (11751479_a_at) / Fold change /veh CCDC152 (11751479_a_at) / RFU FAM211A (11726209_a_at) / Fold change /veh FAM211A (11726209_a_at) / RFU RGS16 (11746705_a_at) / Fold change /veh RGS16 (11746705_a_at) / RFU VCAN (11755009_s_at) / Fold change /veh VCAN (11755009_s_at) / RFU RHOB (11743442_s_at) / Fold change /veh RHOB (11743442_s_at) / RFU RGS16 (11720943_a_at) / Fold change /veh RGS16 (11720943_a_at) / RFU RGS16 (11720944_at) / Fold change /veh RGS16 (11720944_at) / RFU, VPS4B / Fold change vs veh, VPS4B / RFU, CREB1 / Fold change vs veh, CREB1 / RFU, DNAJC13 / Fold change vs veh, DNAJC13 / RFU, GNAQ / Fold change vs veh, GNAQ / RFU, CDK5R1 / Fold change vs veh, CDK5R1 / RFU, ZRANB3 / Fold change vs veh, ZRANB3 / RFU, CUL4A / Fold change vs veh, CUL4A / RFU, CCNY / Fold change vs veh, CCNY / RFU, UFL1 / Fold change vs veh, UFL1 / RFU, COG3 / Fold change vs veh, COG3 / RFU, DIAPH2 / Fold change vs veh, DIAPH2 / RFU, SKA2 / Fold change vs veh, SKA2 / RFU, AFF3 / Fold change vs veh, AFF3 / RFU, LMF1 / Fold change vs veh, LMF1 / RFU, IPO11 / Fold change vs veh, IPO11 / RFU, DFFB / Fold change vs veh, DFFB / RFU, FOXP1 / Fold change vs veh, FOXP1 / RFU, CARD8 / Fold change vs veh, CARD8 / RFU, STRN3 / Fold change vs veh, STRN3 / RFU, ADK / Fold change vs veh, ADK / RFU, RASSF2 / Fold change vs veh, RASSF2 / RFU, WIPF1 / Fold change vs veh, WIPF1 / RFU, LARP1B / Fold change vs veh, LARP1B / RFU, RASA1 / Fold change vs veh, RASA1 / RFU, RB1 / Fold change vs veh, RB1 / RFU, PPFIA1 / Fold change vs veh, PPFIA1 / RFU, MAT2A / Fold change vs veh, MAT2A / RFU, CCT5 / Fold change vs veh, CCT5 / RFU, WDR92 / Fold change vs veh, WDR92 / RFU, CUX1 / Fold change vs veh, CUX1 / RFU, TTC7A / Fold change vs veh, TTC7A / RFU, TMEM135 / Fold change vs veh, TMEM135 / RFU, DEPTOR / Fold change vs veh, DEPTOR / RFU, CPM / Fold change vs veh, CPM / RFU, DNAJB6 / Fold change vs veh, DNAJB6 / RFU, CACNA2D3 / Fold change vs veh, CACNA2D3 / RFU, DTX4 / Fold change vs veh, DTX4 / RFU, TFCP2 / Fold change vs veh, TFCP2 / RFU, GMCL1 /// GMCL1P1 / Fold change vs veh, GMCL1 /// GMCL1P1 / RFU, AEBP2 / Fold change vs veh, AEBP2 / RFU, SNHG1 /// SNORD22 /// SNORD25 /// SNORD26 /// SNORD27 /// SNORD28 /// SNORD29 /// SNORD31 / Fold change vs veh, SNHG1 /// SNORD22 /// SNORD25 /// SNORD26 /// SNORD27 /// SNORD28 /// SNORD29 /// SNORD31 / Fold change (Aza/veh), C12orf56 (ProbeSet 11735607_a_at) / Fold change (ACY-1035/veh), C12orf56 (ProbeSet 11735607_a_at) / Fold change (Aza/veh), FGFR1OP (ProbeSet 11751329_s_at) / Fold change (ACY-1035/veh), FGFR1OP (ProbeSet 11751329_s_at) / Fold change (Aza/veh), VPS36 (ProbeSet 11739960_a_at) / Fold change (ACY-1035/veh), VPS36 (ProbeSet 11739960_a_at) / RFU SYPL1 (11715823_x_at) / Fold change /veh SYPL1 (11715823_x_at) / RFU IGFBP7 (11715501_s_at) / Fold change /veh IGFBP7 (11715501_s_at) / RFU REEP3 (11722064_at) / Fold change /veh REEP3 (11722064_at) / RFU IGLL1 (11728026_x_at) / Fold change /veh IGLL1 (11728026_x_at): dose or concentration left out as unconfirmed", "conditions": "ProbeSet 11732277_a_at; LIST D", "data": [{"smiles": "Nc1ncn([C@@H]2O[C@H](CO)[C@@H](O)[C@H]2O)c(=O)n1", "note": "[azacitidine]", "values": [{"measurement": "RFU, FOXP1", "value": 363.93, "unit": "RFU"}]}]}
